Assay results reported in US5968980A, “1,3-dialkylurea derivative” (Santen Pharmaceutical Co., Ltd., priority 1994, dated 1999).

These molecules were tested against T1, endopeptidase 24.11 (Rattus norvegicus, UniProt P07861) (assay: inhibition of endopeptidase 24.11 activity (DAGNPG cleavage, fluorescence, rat kidney enzyme preparation)). Conditions: DAGNPG 50 μM, 37° C., 30 minutes, pH 7.4, rat kidney enzyme preparation; read-out: IC50 (concentration required to inhibit endopeptidase 24.11 by 50%).
T1 construct: A kidney was excised from a Wistar rat; from tissue; host or cells: Wistar rat kidney, crude membrane pellet suspended in HEPES buffer
T1 sequence (P07861 1-750): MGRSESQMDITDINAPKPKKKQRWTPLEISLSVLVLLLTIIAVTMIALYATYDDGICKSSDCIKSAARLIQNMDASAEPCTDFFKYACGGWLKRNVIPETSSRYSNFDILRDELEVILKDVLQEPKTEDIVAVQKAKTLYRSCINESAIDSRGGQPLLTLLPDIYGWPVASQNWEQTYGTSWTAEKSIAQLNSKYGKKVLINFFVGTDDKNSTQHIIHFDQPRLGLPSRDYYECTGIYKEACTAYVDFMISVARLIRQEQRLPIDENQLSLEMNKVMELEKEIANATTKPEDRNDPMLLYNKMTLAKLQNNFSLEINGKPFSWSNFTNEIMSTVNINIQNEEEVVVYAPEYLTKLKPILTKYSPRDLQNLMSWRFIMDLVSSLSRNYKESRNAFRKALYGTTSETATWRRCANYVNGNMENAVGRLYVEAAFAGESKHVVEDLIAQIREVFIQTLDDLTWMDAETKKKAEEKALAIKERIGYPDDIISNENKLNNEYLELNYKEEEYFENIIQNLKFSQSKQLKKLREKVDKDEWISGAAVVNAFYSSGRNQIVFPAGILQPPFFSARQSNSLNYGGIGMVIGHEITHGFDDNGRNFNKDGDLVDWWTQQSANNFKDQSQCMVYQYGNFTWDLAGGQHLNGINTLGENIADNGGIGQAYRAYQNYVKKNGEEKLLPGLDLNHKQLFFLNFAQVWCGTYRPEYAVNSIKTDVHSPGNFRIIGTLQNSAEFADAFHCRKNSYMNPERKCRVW
Format: biochemical
Text: As a method for measuring endopeptidase 24.11 activity, Florentin et al. had reported a method for measuring the enzyme activity by a degree of cleavage of a peptide bond between glycine and p-nitrophenylalanine using N-dansyl-D-alanyl-glycyl-p-nitrophenylalanyl-glycine (DAGNPG) as a substrate (Anal. Biochem., 141, 62-69 (1984)). An effect of the present compounds on endopeptidase 24.11 was examined according to the method described in the literature.
An enzyme preparation used in this pharmacological test was prepared by extracting from a rat kidney by the following method according to the method of Malfloy et al. (J. Biol. Chem., 259, 14365-14370 (1984)).
A kidney was excised from a Wistar rat. The kidney was homogenized in Tris-hydrochloric acid buffer (5 mM, pH 7.4, containing 125 mM D-mannitol and 12 mM magnesium chloride). The homogenate was centrifuged at low speed (1,000×g) to give a supernatant. The supernatant was ultracentrifuged ([…]) for 120 minutes. The resulting pellet was suspended in Tris-hydrochloric acid buffer (2.5 mM, pH 7.4, containing 62.5 mM D-mannitol and 6 mM magnesium chloride). The suspension was centrifuged at low speed and then ultracentrifuged again. The resulting pellet was suspended in HEPES buffer (5 mM, pH 7.4) to give the enzyme preparation.
In order to examine the effect of the present compounds on the enzyme preparation, reactions were performed under the following condition using mixed solutions consisting of the composition shown in Table 1.
Enzyme preparation 0.3-0.5 μg protein
The above-mentioned solution (150 μl) was incubated at 37° C. for 30 minutes and then boiled at 100° C. for five minutes. To the solution was added 1.35 ml of Tris-hydrochloric acid buffer (50 mM, pH 7.4). The mixture was centrifuged at moderate speed (5,000×g) for five minutes to give a supernatant. Fluorescence intensity of the supernatant (excitation at 342 nm of wave length and emission at 562 nm) was measured.
The degree of the inhibitory effect of each test compound on the enzyme preparation is expressed by the inhibition rate calculated by the following equation. [formula]
A: fluorescence intensity of the sample in the absence of the test compound
B: fluorescence intensity of the sample in the presence of the test compound

SMILES | IC50
CC(C)CN(CC(CCc1ccccc1)C(=O)O)C(=O)N[C@@H](Cc1ccc(-c2ccccc2)cc1)C(=O)O (mixture of isomers) [Compound No. 5-6, (2S)-3-(4-Biphenylyl)-2-[3-[(2RS)-2-carboxy-4-phenylbutyl]-3-isobutylureido]propionic acid] | 0.55 nM
CC(C)CN(CC(CCc1ccccc1)C(=O)O)C(=O)N[C@@H](Cc1ccc2ccccc2c1)C(=O)O (mixture of isomers) [Compound No. 7-6, (2S)-2-[3-[(2RS)-2-Carboxy-4-phenylbutyl]-3-isobutylureido]-3-(2-naphthyl)propionic acid] | 3.1 nM
CC(C)CN(CC(OCc1ccccc1)C(=O)O)C(=O)N[C@@H](Cc1ccc(-c2ccccc2)cc1)C(=O)O (single isomer, unassigned) [Compound No. 8-1, (2S)-2-[3-[(2S or 2R)-2-Benzyloxy-2-carboxyethyl]-3-isobutylureido]-3-(4-biphenylyl)propionic acid] | 0.93 nM
CC(C)CN(CC(CCc1ccccc1)C(=O)O)C(=O)N[C@@H](Cc1ccc(-c2ccccc2)cc1)C(=O)O (single isomer, unassigned) [Compound No. 9-1, (2S)-3-(4-Biphenylyl)-2-[3-[(2S or 2R)-2-carboxy-4-phenylbutyl]-3-isobutylureido]propionic acid] | 0.58 nM
CC(C)CN(CCC(=O)O)C(=O)N[C@@H](Cc1ccc2ccccc2c1)C(=O)O [Compound No. 5-21, (2S)-2-[3-(2-Carboxyethyl)-3-isobutylureido]-3-(2-naphthyl)propionic acid] | 9.3 nM
CC(C)CCC(CN(CC(C)C)C(=O)N[C@@H](Cc1ccc(-c2ccccc2)cc1)C(=O)O)C(=O)O (mixture of isomers) [Compound No. 7-3, (2S)-3-(4-Biphenylyl)-2-[3-[(2RS)-2-carboxy-5-methylhexyl]-3-isobutylureido]propionic acid] | 4 nM
CC(C)CN(CCC(=O)O)C(=O)N[C@@H](Cc1ccc(-c2ccccc2)cc1)C(=O)O [Compound No. 5-1, (2S)-3-(4-Biphenylyl)-2-[3-(2-carboxyethyl)-3-isobutylureido]propionic acid] | 1.3 nM
CC(C)CN(CC(CCc1ccccc1)C(=O)NO)C(=O)N[C@@H](Cc1ccc(-c2ccccc2)cc1)C(=O)O (single isomer, unassigned) [Compound No. 10-1, (2S)-3-(4-Biphenylyl)-2-[3-[(2S or 2R)-2-hydroxycarbamoyl-4-phenylbutyl]-3-isobutylureido]propionic acid] | 2.1 nM
